70 molecules from ChEMBL document CHEMBL5724803, “Viability screening in matched tumor and normal assay results for EUbOPEN Chemogenomics Library” (2024) can be followed below.

This experiment relates to Colon organoid. The class given is functional, Homo sapiens.

Turning to `Cc1c(NC(=O)c2ccc(C(C)(C)C)cc2)cccc1-c1cn(C)c(=O)c(Nc2ccc(C(=O)N3CCOCC3)cc2)n1`, the “Cell Viability Ratio” value is reported as 0.9821.

For `CCOC(=O)c1c(/C(C#N)=C\N)c2ccc(Cl)c(Cl)c2n1C`, the “Cell Viability Ratio” value came to 1.055. Turning to `Cl.Cl.Cl.c1ccc(N2CCN(Cc3nc4ccccc4[nH]3)CC2)nc1`, the “Cell Viability Ratio” value is recorded as 0.9546. `O=C(Nc1cccnn1)N1CCC(=Cc2cccc(Oc3ccc(C(F)(F)F)cn3)c2)CC1`: the “Cell Viability Ratio” value worked out at 0.957. Consider `COc1cc(Nc2nccc(-c3cnn4nc(OC)ccc34)n2)cc(C(F)(F)F)c1`, for which the “Cell Viability Ratio” value is given as 1.735. `Cc1ccc(NC(=O)Nc2cc(C(F)(F)F)ccc2F)cc1Nc1ccc2c(c1)NC(=O)/C2=C\c1ccc[nH]1`: the “Cell Viability Ratio” value is 0.7659. In the case of `CCCCNc1ncc(-c2ccc(CN3CCOCC3)cn2)c(N[C@H]2CC[C@H](O)CC2)n1` it was 1.102; in that of `COc1cc(-c2cn([C@H]3CCc4c(F)cccc4N(CC(F)(F)F)C3=O)nn2)ccc1-n1cnc(C)c1`, 1.087. Regarding `Clc1cccc(-c2nnnn2Cc2cccnc2)c1Cl`, the “Cell Viability Ratio” value is given as 0.9298. On to `Cc1nc(N2CC[C@H](O)C2)ncc1-c1cc(C(F)(F)F)cc2[nH]ncc12`, for which the “Cell Viability Ratio” value stood at 1.041. In the case of `CCOc1cn(-c2ccc(F)cc2C)nc1C(=O)Nc1ccc(Oc2ccnc3cc(OC)c(OC)cc23)c(F)c1` it was 0.8903; in that of `Cc1c(C(=O)Nc2ccc(Oc3ccnc4[nH]cc(-c5ccccc5)c34)c(F)c2)c(=O)n(-c2ccc(F)cc2)n1C`, 0.9213; in that of `CCNC(=O)c1cc2c(N3CCOC[C@@H]3C)ccnc2n1C`, 1.086.

Regarding `CCNC(=O)c1cc2c(N3CCOC[C@@H]3C)ccnc2[nH]1`, the “Cell Viability Ratio” value is on record as 0.9047. In the case of `COc1cc(Nc2ccnc3ccc(Br)cc23)cc(OC)c1OC` it was 1.477; in that of `CCN(CC)S(=O)(=O)Nc1cccc(-c2ccc3c(NC(=O)C4CC4)n[nH]c3c2)c1`, 1.062; in that of `CN(C)C(=O)Cn1cc(-c2ccc(-c3cncc4ccccc34)cc2)cn1`, 0.9698. In the case of `CC(C)C(=O)Nc1n[nH]c2cc(-c3cccc(NS(=O)(=O)C4CC4)c3)ccc12` it was 1.005; in that of `COc1cc(N(C)c2ccnc3ccc(C(F)(F)F)cc23)cc(OC)c1OC`, 0.896; in that of `CN1CCN(Cc2cc(NC(=O)c3ccc4c(c3)CN(c3ccccc3)CC4)cc(C(F)(F)F)c2)CC1`, 1.189. With `Cc1cn(-c2cc(NC(=O)c3ccc4c(c3)CN(c3cncnc3)C[C@@H]4C)cc(C(F)(F)F)c2)cn1` the figure was 1.531; with `CN(C)C(=O)/C(C#N)=C/c1ccc(-c2nc3cnc4[nH]ccc4c3n2C2CCCCC2)o1`, 0.9378; with `Cl.Cl.NC1(c2ccc(-c3nc4ccn5c(=O)[nH]nc5c4cc3-c3ccccc3)cc2)CCC1`, 1.463.

On to `Cn1cc(-c2ccc3occ(-c4ccccc4-c4ccccc4)c3n2)cn1`, for which the “Cell Viability Ratio” value is given as 0.9405. Consider `Cc1cccc(-c2cnc3occ(-c4ccc(C(=O)O)c(C5CCCC5)c4)c3c2)c1`, for which the “Cell Viability Ratio” value is 0.9583. In the case of `COc1cc(-c2cn([C@H]3CCc4ccccc4N(CC(F)(F)F)C3=O)nn2)ccc1-n1ccc(C)n1`, the “Cell Viability Ratio” value was determined as 0.9931. In the case of `C[C@@H](c1cccc(CN)c1)n1cc(Cl)cc(C(N)=O)c1=N.Cl` it was 1.078; in that of `Cn1cc(-c2ccc3occ(-c4cccc(-c5ccncc5)c4)c3n2)cn1`, 0.9731. In the case of `CCCCN(CCCC)C(=O)CN1C[C@H](c2cc(OC)c3c(c2)OCO3)[C@@H](C(=O)O)[C@@H]1CC(C)(C)CCC.Cc1ccc(S(=O)(=O)O)cc1` it was 0.9627; in that of `O=C(NCCCN1CCOC1=O)c1cnc(NCc2cc(Br)ccc2Br)nc1NC1CCCC1`, 0.9691. In the case of `CCN(Cc1ccc(Cl)cc1)c1ncc(C(=O)NCCCN2CCCC2=O)c(NC2CCCC2)n1` it was 1.023. In the case of `O=C(NCc1ccccc1)c1ccc(S(=O)(=O)NCc2ccccc2)cc1`, the “Cell Viability Ratio” value came out at 1.216. With `O=C(Nc1cccnn1)N1CC(C/C=C/c2cncc(Oc3ccc(C(F)(F)F)cn3)n2)C1` the figure was 0.9954. With `O=C(O)c1ccc(-c2coc3ncc(-c4ccccc4)cc23)cc1Cl` the figure was 0.9757. Consider `CCCCN(Cc1ccccc1)C(=O)c1ccc(S(=O)(=O)Nc2ccccc2)cc1`, for which the “Cell Viability Ratio” value came to 1.3021. With `CCCCN(CCCC)C(=O)CN1C[C@@H](c2cc(OC)c3c(c2)OCO3)[C@H](C(=O)O)[C@H]1CC(C)(C)CCC.Cl`, the “Cell Viability Ratio” value was found to be 0.8768. As for `CN(C)C(=O)/C(C#N)=C/c1ccc(-c2nc3cnc4c(ccn4C)c3n2C2CCCCC2)o1`, the “Cell Viability Ratio” value is 0.859. Regarding `c1ccc2oc(-c3csc(C4CCN(Cc5nc6ncccc6[nH]5)CC4)n3)cc2c1`, the “Cell Viability Ratio” value amounted to 0.6127.

For `COc1cc(Nc2nc(C)cc(-c3cnn4nc(OC)ccc34)n2)cc(C(F)(F)F)c1`, the “Cell Viability Ratio” value amounted to 0.9824. With `CN(C)C(=O)Cn1cc(-c2ccc(-c3nnc4ccccn34)cc2)cn1`, the “Cell Viability Ratio” value amounted to 1.225.

With `CN(C)C(=O)N1CC[C@H](NC2=Nc3cc(F)ccc3N(CC(F)F)c3ccc(Cl)cc32)C1`, the “Cell Viability Ratio” value came to 0.9552. Turning to `CN(C)[C@@H]1CCN(c2cc(-c3ccccc3)nc3ccnn23)C1` [(R)-ZINC-3573], the “Cell Viability Ratio” value is recorded as 0.9989.

For `CN(C)[C@H]1CCN(c2cc(-c3ccccc3)nc3ccnn23)C1` [(S)-ZINC-3573], the “Cell Viability Ratio” value is 1.093. With `Cn1cncc1[C@@](O)(COc1ccc(C#N)cc1-c1ccc(OC(F)(F)F)cc1)c1ccc(C#N)cc1` [A-108], the “Cell Viability Ratio” value was determined as 0.984.

Regarding `CCC(=N\O)/C(C)=C/c1ccc(F)c(C)c1` [A-226], the “Cell Viability Ratio” value was found to be 1.032. With `CNC(=O)Nc1ccc2c(c1)CC[C@@]21OC(=O)N(CC(=O)N(Cc2ccc(F)cc2)[C@@H](C)C(F)(F)F)C1=O` [A-485] the figure was 0.9163. In the case of `CNC(=O)Nc1ccc2c(c1)[C@@]1(CC2)OC(=O)N(CC(=O)N(Cc2ccc(F)cc2)[C@@H](C)C(F)(F)F)C1=O` [A-486] it was 0.9599. In the case of `CCCCN(CCCC)C(=O)CN1C[C@@H](c2cc(OC)c3c(c2)OCO3)[C@H](C(=O)O)[C@H]1CC(C)(C)CCC` [A-545] it was 1.095.

Take `CCCOc1ccc([C@H]2[C@H](C(=O)O)[C@@H](c3ccc4c(c3)OCO4)CN2CC(=O)Nc2c(CC)cccc2CC)cc1` [A-192621]: the “Cell Viability Ratio” value is reported as 1.0774. In the case of `O=C(NS(=O)(=O)c1ccc(NCC2CCOCC2)c([N+](=O)[O-])c1)c1ccc(N2CCN(Cc3ccc(C(F)(F)F)cc3-c3ccc(Cl)cc3)CC2)cc1Oc1cnc2[nH]ccc2c1` [A-1210227] it was 0.9477; in that of `CO[C@H]1CC[C@H](CNc2ccc(S(=O)(=O)NC(=O)c3ccc(N4CCN(CC5=C(c6ccc(Cl)cc6)CC(C)(C)CC5)CC4)cc3Oc3cnc4[nH]ccc4c3)cc2[N+](=O)[O-])CC1` [A-1211212], 0.9488.

With `COc1ccc2c(c1)O[C@H](c1ccc(OC)c(OC)c1)C[C@@H]2NC(=O)C1(c2ccc3c(c2)OC(F)(F)O3)CC1` [A-1596584], the “Cell Viability Ratio” value was found to be 0.985. In the case of `COc1ccc2c(c1)O[C@@H](c1ccc(OC)c(OC)c1)C[C@H]2NC(=O)C1(c2ccc3c(c2)OC(F)(F)O3)CC1` [A-1596586], the “Cell Viability Ratio” value was found to be 1.062. With `CCCOc1ccc([C@@H]2[C@@H](C(=O)O)[C@H](c3ccc4c(c3)OCO4)CN2CC(=O)Nc2c(CC)cccc2CC)cc1` [A-1806262] the figure was 1.041.

Turning to `Cc1cnc(-c2cc(Cl)ccc2F)cc1-n1c(=O)n(CC(N)=O)c2ccccc21` [Al11], the “Cell Viability Ratio” value turned out to be 1.079. In the case of `Cn1c(-c2csc(C3CCN(CC4=NC5N=CC=CC5N4)CC3)n2)nc2ccccc21` (stereo not given) [BAY-070] it was 0.9524. As to `NS(=O)(=O)c1cc(NC(=O)C2(c3ccccc3Cl)CC2)ccc1Oc1cccc(Cl)c1` [BAY-207], the “Cell Viability Ratio” value is given as 0.9336.

Consider `Cc1cc(NC(=O)c2cccc(S(F)(F)(F)(F)F)c2)cc(-n2ccn3nc(-c4cccnc4)cc23)c1` [BAY-309], for which the “Cell Viability Ratio” value was 1.076.

In the case of `O=C(N1CCS(=O)(=O)CC1)N1C[C@H](c2ccc(OC(F)(F)F)cc2)C[C@H](c2nc(C3CC3)no2)C1` [BAY-386], the “Cell Viability Ratio” value turned out to be 0.9974. In the case of `O[C@]1(C(F)(F)F)CCCC[C@H]1Nc1ccc(F)cc1` [BAY-390] it was 0.968; in that of `Cc1c(N2CCNCC2)nc2ccc(Br)cc2c1C(=O)NC[C@H](CCC(=O)O)c1ccccc1Cl` [BAY-403], 0.887; in that of `CN(C)c1ncnc(-c2ccc3nc(Nc4cc(CN5CCN(C(=O)CC(F)(F)F)CC5)ccn4)[nH]c3c2)c1Cl` [BAY-440], 0.922. On to `Cc1noc([C@H]2C[C@@H](c3ccc(C(F)(F)F)cc3)CN(C(=O)N3CCS(=O)(=O)C3)C2)n1` [BAY-448], for which the “Cell Viability Ratio” value came out at 0.9504. `CC1=C(C#N)C(c2ccc3[nH]nc(C)c3c2)C(C#N)=C(C)N1` [BAY-474]: the “Cell Viability Ratio” value amounted to 0.9495. In the case of `Cc1c(NC(=O)c2cc(C(N)=O)nc3cc(F)ccc23)c(C(F)(F)F)nn1Cc1ccc(C(C)(C)C)cc1` [BAY-588] it was 1.099; in that of `O=C(O)[C@@H]1[C@@H](Cn2nnc3ccccc3c2=O)CC[C@H]1C(=O)c1ccc(OCCC2CCOCC2)cc1` [BAY-694], 1.051. With `O=C(NCc1ncc(C(F)(F)F)cc1Cl)c1ccc2c(c1)C1(CCS(=O)(=O)CC1)[C@H](C1CC1)N2S(=O)(=O)c1ccc(F)cc1` [BAY-784] the figure was 0.9106; with `O=C(NCc1ncc(C(F)(F)F)cc1Cl)c1ccc2c(c1)C1(CCS(=O)(=O)CC1)[C@@H](C1CC1)N2S(=O)(=O)c1ccc(F)cc1` [BAY-786], 1.0741. In the case of `Cc1c(NC(=O)c2cc(C(N)=O)nc3cc(F)ccc23)c(C(F)(F)F)nn1Cc1ccc(C#N)cc1` [BAY-876] it was 1.117; in that of `CN1CCN(c2cnc3c(C4CCN(C(=O)c5ccc(OC(F)(F)F)cc5N)CC4)ncnc3c2)CC1` [BAY-885], 0.9479.
